# Key:
# Assay in all cases: NCI60 cell line screen (SRB)
# Format in all cases: cell-based, human
# KM12 = conditions: KM12, Colon Cancer, 48 h
# Method: (§1) This panel implements the NCI60 cell line screen, including leukemia, non-small cell lung cancer, colon cancer, central nervous system cancer, melanoma, ovarian cancer, renal cancer, prostate cancer and breast cancer. The cell lines tested are specified in Table 3.
# (§2) Generally, the human tumor cell lines of the cancer screening panel are grown in RPMI 1640 medium containing 5% fetal bovine serum and 2 mM L-glutamine. For a typical screening experiment, cells are inoculated into 96 well microtiter plates in 100 μL at plating densities ranging from 5,000 to 40,000 cells/well depending on the doubling time of individual cell lines. After cell inoculation, the microtiter plates are incubated at 37° C., 5% CO2, 95% air and 100% relative humidity for 24 h prior to addition of experimental drugs. After 24 h, two plates of each cell line are fixed in situ with TCA, to represent a measurement of the cell population for each cell line at the time of drug addition (Tz). Experimental drugs are solubilized in dimethyl sulfoxide at 400-fold the desired final maximum test concentration and stored frozen prior to use. At the time of drug addition, an aliquot of frozen concentrate is thawed and diluted to twice the desired final maximum test concentration with complete medium containing 50 μg/ml gentamicin. Additional four, 10-fold or ½ log serial dilutions are made to provide a total of five drug concentrations plus control. Aliquots of 100 μl of these different drug dilutions are added to the appropriate microtiter wells already containing 100 μl of medium, resulting in the required final drug concentrations.
# (§3) Following drug addition, the plates are incubated for an additional 48 h at 37° C., 5% CO2, 95% air, and 100% relative humidity. For adherent cells, the assay is terminated by the addition of cold TCA. Cells are fixed in situ by the gentle addition of 50 μl of cold 50% (w/v) TCA (final concentration, 10% TCA) and incubated for 60 minutes at 4° C. The supernatant is discarded, and the plates are washed five times with tap water and air dried. Sulforhodamine B (SRB) solution (100 μl) at 0.4% (w/v) in 1% acetic acid is added to each well, and plates are incubated for 10 minutes at room temperature. After staining, unbound dye is removed by washing five times with 1% acetic acid and the plates are air dried. Bound stain is subsequently solubilized with 10 mM trizma base, and the absorbance is read on an automated plate reader at a wavelength of 515 nm. For suspension cells, the methodology is the same except that the assay is terminated by fixing settled cells at the bottom of the wells by gently adding 50 μl of 80% TCA (final concentration, 16% TCA). Using the seven absorbance measurements (time zero, Tz, control growth, (control), and test growth in the presence of drug at the five concentration levels (Ti)), the percentage growth is calculated at each of the drug concentrations levels. Percentage growth inhibition is calculated as:
# (§4) [(Ti−Tz)/(C−Tz)]×100 for concentrations for which Ti>/=Tz
# (§5) [(Ti−Tz)/Tz]×100 for concentrations for which Ti<Tz.
# SR = conditions: Leukemia, 48 h
# Method: as §1, §2, §3, §4, §5
# NCI-H226 = conditions: NCI-H226, Non-Small Cell Lung Cancer, 48 h
# Method: as §1, §2, §3, §4, §5
# MDA-MB-231/ATCC = conditions: Breast Cancer, 48 h
# Method: as §1, §2, §3, §4, §5
# SF-268 = conditions: SF-268, CNS Cancer, 48 h
# Method: as §1, §2, §3, §4, §5
# NCI-H23 = conditions: NCI-H23, Non-Small Cell Lung Cancer, 48 h
# Method: as §1, §2, §3, §4, §5
# T-47D = conditions: Breast Cancer, 48 h
# Method: as §1, §2, §3, §4, §5
# SW-620 = conditions: SW-620, Colon Cancer, 48 h
# Method: as §1, §2, §3, §4, §5
# SN12C = conditions: Renal Cancer, 48 h
# Method: as §1, §2, §3, §4, §5
# EKVX = conditions: Non-Small Cell Lung Cancer, 48 h
# Method: as §1, §2, §3, §4, §5
# UACC-257 = conditions: UACC-257, Melanoma, 48 h
# Method: as §1, §2, §3, §4, §5
# SNB-19 = conditions: SNB-19, CNS Cancer, 48 h
# Method: as §1, §2, §3, §4, §5
# HT-29 = conditions: HT-29, Colon Cancer, 48 h
# Method: as §1, §2, §3, §4, §5
# PC-3 = conditions: PC-3, Prostate Cancer, 48 h
# Method: as §1, §2, §3, §4, §5
# BT-459 = conditions: BT-459, Breast Cancer, 48 h
# Method: as §1, §2, §3, §4, §5
# NCI-H552 = conditions: NCI-H552, Non-Small Cell Lung Cancer, 48 h
# Method: as §1, §2, §3, §4, §5
# NCI-H460 = conditions: NCI-H460, Non-Small Cell Lung Cancer, 48 h
# Method: as §1, §2, §3, §4, §5
# UO-31 = conditions: UO-31, Renal Cancer, 48 h
# Method: as §1, §2, §3, §4, §5
# HCT-15 = conditions: HCT-15, Colon Cancer, 48 h
# Method: as §1, §2, §3, §4, §5
# OVCAR4 = conditions: OVCAR4, Ovarian Cancer, 48 h
# Method: as §1, §2, §3, §4, §5
# LOX IMVI = conditions: Melanoma, 48 h
# Method: as §1, §2, §3, §4, §5
# K-562 = conditions: K-562, Leukemia, 48 h
# Method: as §1, §2, §3, §4, §5
# HS 578T = conditions: Breast Cancer, 48 h
# Method: as §1, §2, §3, §4, §5
# OVCAR3 = conditions: OVCAR3, Ovarian Cancer, 48 h
# Method: as §1, §2, §3, §4, §5
# CAKI-1 = conditions: CAKI-1, Renal Cancer, 48 h
# Method: as §1, §2, §3, §4, §5
# RPMO-8226 = conditions: RPMO-8226, Leukemia, 48 h
# Method: as §1, §2, §3, §4, §5
structure (smiles),measurement,setting,value
O=C(O)C(F)(F)F.O=C1C(NCCc2ccc3c(c2)OCO3)=CC2=NCCc3c[nH]c1c32 [Compound 6],GI50,KM12; Homo sapiens,2290 nM
same,GI50,SR; Homo sapiens,2500 nM
same,GI50,NCI-H226; Homo sapiens,4380 nM
same,GI50,MDA-MB-231/ATCC; Homo sapiens,2320 nM
same,GI50,SF-268; Homo sapiens,3660 nM
same,GI50,NCI-H23; Homo sapiens,1690 nM
same,GI50,"T-47D; Homo sapiens, T47D",2970 nM
same,GI50,SW-620; Homo sapiens,3440 nM
same,GI50,SN12C; Homo sapiens,2690 nM
same,GI50,EKVX; Homo sapiens,1960 nM
same,GI50,UACC-257; Homo sapiens,2970 nM
same,GI50,SNB-19; Homo sapiens,3290 nM
same,GI50,HT-29; Homo sapiens,2070 nM
same,GI50,PC-3; Homo sapiens,5930 nM
same,GI50,BT-459; Homo sapiens,3070 nM
same,GI50,NCI-H552; Homo sapiens,2620 nM
same,GI50,NCI-H460; Homo sapiens,1010 nM
same,GI50,UO-31; Homo sapiens,5840 nM
same,GI50,HCT-15; Homo sapiens,1860 nM
same,GI50,"OVCAR4; Homo sapiens, OVCAR-4",971 nM
same,GI50,LOX IMVI; Homo sapiens,1680 nM
same,GI50,"K-562; Homo sapiens, K562",3430 nM
same,GI50,HS 578T; Homo sapiens,2860 nM
same,GI50,"OVCAR3; Homo sapiens, OVCAR-3",2020 nM
same,GI50,CAKI-1; Homo sapiens,1770 nM
O=C(O)C(F)(F)F.O=C1C(NCc2ccc(F)cc2)=CC2=NCCc3c[nH]c1c32 [Compound 28],GI50,KM12; Homo sapiens,2020 nM
same,GI50,SR; Homo sapiens,1210 nM
same,GI50,NCI-H226; Homo sapiens,2340 nM
same,GI50,MDA-MB-231/ATCC; Homo sapiens,725 nM
same,GI50,SF-268; Homo sapiens,1660 nM
same,GI50,NCI-H23; Homo sapiens,521 nM
same,GI50,"T-47D; Homo sapiens, T47D",633 nM
same,GI50,SW-620; Homo sapiens,1820 nM
same,GI50,SN12C; Homo sapiens,1950 nM
same,GI50,EKVX; Homo sapiens,453 nM
same,GI50,RPMO-8226; Homo sapiens,559 nM
same,GI50,UACC-257; Homo sapiens,189 nM
same,GI50,SNB-19; Homo sapiens,1790 nM
same,GI50,HT-29; Homo sapiens,596 nM
same,GI50,PC-3; Homo sapiens,1570 nM
same,GI50,BT-459; Homo sapiens,3140 nM
same,GI50,NCI-H552; Homo sapiens,2000 nM
same,GI50,NCI-H460; Homo sapiens,816 nM
same,GI50,UO-31; Homo sapiens,2590 nM
same,GI50,HCT-15; Homo sapiens,1480 nM
same,GI50,"OVCAR4; Homo sapiens, OVCAR-4",1090 nM
same,GI50,LOX IMVI; Homo sapiens,1570 nM
same,GI50,"K-562; Homo sapiens, K562",1070 nM
same,GI50,HS 578T; Homo sapiens,44000 nM
same,GI50,"OVCAR3; Homo sapiens, OVCAR-3",2230 nM
same,GI50,CAKI-1; Homo sapiens,329 nM
O=C1C(NCc2ccccc2)=CC2=NCCc3c[nH]c1c32 [Compound 4c],GI50,KM12,2060 nM
same,GI50,SR,1750 nM
same,GI50,NCI-H226,5450 nM
same,GI50,MDA-MB-231/ATCC,439 nM
same,GI50,SF-268,2830 nM
same,GI50,NCI-H23,1470 nM
same,GI50,T-47D,523 nM
same,GI50,SW-620,1070 nM
same,GI50,SN12C,1890 nM
same,GI50,EKVX,271 nM
same,GI50,RPMO-8226,1360 nM
same,GI50,UACC-257,315 nM
same,GI50,SNB-19,1960 nM
same,GI50,HT-29,488 nM
same,GI50,PC-3,1540 nM
same,GI50,BT-459,4580 nM
same,GI50,NCI-H552,1690 nM
same,GI50,NCI-H460,1510 nM
same,GI50,UO-31,2630 nM
same,GI50,HCT-15,1390 nM
same,GI50,OVCAR4,624 nM
same,GI50,LOX IMVI,1810 nM
same,GI50,K-562,2360 nM
same,GI50,HS 578T,5200 nM
same,GI50,OVCAR3,2580 nM
same,GI50,CAKI-1,298 nM

# — US20100144779A1, “Marine Alkalod Makaluvamines and Derivatives Thereof” (THE UAB RESEARCH FOUNDATION, priority 2007, published 2010)
